One series concerns S. aureus USA300 LAC. Description: Bacterial membrane permeation (propidium iodide). The class given is cell-based. To be noted: 12.5 μM. As to the method: The experiment was performed as described with minor modifications (Mishra, et al. (2019) Proc. Natl. Acad. Sci., 116:13517-13522). Serially diluted 10×peptides (10 μL each well) were created in 96-well microtiter plates. Propidium iodide (2 μL) at a fixed concentration of 20 μM was added to each well followed by 88 μL of the exponential phase S. aureus USA300 culture (a final OD600˜0.1 in TSB media or PBS). Both daptomycin (98%, TSZChem, MA) and rifamycin (98%, Alfa Aesar, MA) were used as controls. The plate was incubated at 37° C. with continuous shaking at 100 rpm in a FLUOstar® Omega (BMG LABTECH, NC) microplate reader. The samples fluorescence was read at every 5 minutes for 24 cycles with excitation and emission wavelengths of 584 and 620 nm, respectively. Plots were generated using average values from the experiments using GraphPad Prism 7.

Another series relates to S. aureus USA300. Kind of series: Bacterial membrane depolarization (DiBAC4(3)). It counts as cell-based. To be noted: 3.1, 6.25, 12.5, and 25 μM; 40 minutes. Here is the method: The experiment was conducted as described (Marks, et al. (2013) PLOS One 8:e63158). In brief, an overnight culture of S. aureus USA300 was subcultured in a fresh TSB medium and grown to the exponential phase. Cells were spun using centrifugation, washed 2× with PBS, resuspended in twice the volume of PBS containing 25 mM glucose, and incubated at 37° C. for 15 minute. For membrane depolarization measurements, 500 nM (final concentration) of the dye DiBAC4 (3) bis(1,3-dibutylbarbituric acid) trimethine oxonol (ANASPEC, CA) was added, and the reaction mixture was vortexed gently. Aliquots of 90 μL of the energized bacteria solution were loaded to the wells, and the plate was fed into a FLUOstar® Omega microplate reader. Fluorescence was read for 20 minutes at excitation and emission wavelengths of 485 and 520 nm, respectively, to get dye normalization. Then, 10 μL of the peptide solution was added and gently mixed. Fluorescence readings were recorded for 40 minutes, where Triton™ X-100 (0.1%) was used as a positive control.

For the next series, the system named is HaCaT cells. The class given is cell-based, human. As to the method:
Peptides were assessed for potential cytotoxicity using HaCaT cells (Addexbio Technologies, CA). Briefly, cells were seeded at a density of 1×10^4 per well in a tissue culture 96-well plate. DMEM was supplemented with 10% fetal bovine serum (FBS) and incubated at 37° C. in a 5% CO2 atmosphere for 24 hours. Culture medium was aspirated and replaced with fresh serum free media. Cells were exposed to different concentrations of peptides for 1 hour at 37° C. in a 5% CO2 atmosphere. Post-incubation, the cells were washed and incubated with 100 μL of DMEM media containing 20 μL of MTS reagent for 2 hours at 37° C. Absorbance was read at 492 nm using a ChroMate® microplate reader (Awareness Technology, FL).

The next series in a line: In vivo toxicity. More on the design: species or system C57BL/6 mice. Here is the method:
Toxicity was assessed in female C57BL/6 mice by the intraperitoneal administration of increasing doses of the antimicrobial peptide C10-KR8d (10, 20, and 40 mg/kg) and a control group without peptide treatment. The animals were then observed for 5 days (twice a day). The number of moribund/dead animals for each of the doses was noted and plotted.
Mice were caged, fed, and environmentally adapted as described (Lakshmaia, et al. (2020) Proc. Natl. Acad. Sci., 117:19446-19454). All animal manipulations were performed in a class II laminar flow biological safety cabinet.

The subject of series [1] is S. aureus USA300 transposon mutant SAUSA300_0645 (graR). Description: Antimicrobial susceptibility of transposon mutant. It counts as cell-based. To be noted: mutant SAUSA300_0645 graR versus WT. Here is the method: (§1) The antimicrobial susceptibility of over 20 MRSA transposon mutants were also tested, based on a transposon library screening, in the presence of LL-37 peptides (Golla, et al. (2020) ACS Infect. Dis., 6:1866-1881). This Nebraska Transposon Mutant Library of S. aureus USA300 consists of 1920 mutants, each with one nonessential gene disabled due to a transposon insertion (Fey, et al. (2013) mBio 4:e00537-12). The correct insertion of the transposon to each Staph mutant had been verified (Golla, et al. (2020) ACS Infect. Dis., 6:1866-1881). Antimicrobial susceptibility to the new peptide C10-KR8d was evaluated in the same manner as MIC assays. Susceptible strains could be inhibited at a peptide concentration lower than the MIC against the wild strain S. aureus JE2.

Series [2] has as its system S. aureus USA300 transposon mutant SAUSA300_0646 (graS). Description: Antimicrobial susceptibility of transposon mutant. It counts as cell-based. To be noted: mutant SAUSA300_0646 graS versus WT. As to the method: as §1
The subject of series [3] is S. aureus USA300 transposon mutant SAUSA300_0988 (trkA). Kind of series: Antimicrobial susceptibility of transposon mutant. It counts as cell-based. To be noted: mutant SAUSA300_0988 trkA versus WT. Here is the method:
as §1

Series [4] concerns S. aureus USA300 transposon mutant SAUSA300_1037 (pheS). Description: Antimicrobial susceptibility of transposon mutant. The class given is cell-based. To be noted: mutant SAUSA300_1037 pheS versus WT. Here is the method:
as §1

The test system of series [5] is S. aureus USA300 transposon mutant SAUSA300_1089 (lspA). Description: Antimicrobial susceptibility of transposon mutant. To be noted: mutant SAUSA300_1089 lspA versus WT. The class given is cell-based. As to the method:
as §1

Series [6] deals with S. aureus USA300 transposon mutant SAUSA300_1255 (mprF). Description: Antimicrobial susceptibility of transposon mutant. The class given is cell-based. To be noted: mutant SAUSA300_1255 mprF versus WT. As to the method: as §1
In series [7] the test system is S. aureus USA300 transposon mutant SAUSA300_1865 (vraR). Description: Antimicrobial susceptibility of transposon mutant. It counts as cell-based. To be noted: mutant SAUSA300_1865 vraR versus WT. Here is the method:
as §1

The subject of series [8] is S. aureus USA300 transposon mutant SAUSA300_1228 (thrB). It counts as cell-based. As to the method:
as §1

The structures appear in SMILES notation. Non-standard residues stand in square brackets, D forms with d. Residues, ends and D or L forms follow the SMILES beside them. *: point of attachment. Decanoyl = CCCCCCCCCC(=O)* Bounds are passed on as bounds.

In the case of `CCCCCCCCCC(=O)N[C@H](CCCCN)C(=O)N[C@H](CCCNC(=N)N)C(=O)N[C@@H](C(=O)N[C@H](Cc1c[nH]c2ccccc12)C(=O)N[C@H](CCC(N)=O)C(=O)N[C@H](CCCNC(=N)N)C(=O)N[C@@H](C(=O)N[C@H](CCCCN)C(N)=O)[C@H](C)CC)[C@H](C)CC` [Peptide C10-KR8d] (Decanoyl-[dK][dR][dI][dW][dQ][dR][dI][dK]-NH2), the “membrane permeation (propidium iodide fluorescence)” value with S. aureus USA300 LAC is on record as “able to permeate the membranes of S. aureus USA300 LAC”. Besides, the “membrane depolarization ability (order)” value in the series with S. aureus USA300 is reported as “Triton™ X-100>17BIPHE2>C10-KR8d>daptomycin”. In addition, the “relative toxicity to HaCaT cells” value in the series with HaCaT cells was “slightly more toxic than C10-KR8”. Moreover, in “In vivo toxicity” (female, C57BL/6, mouse, in vivo, ip, C57BL/6 mice, read-out: maximal tolerated dose (MTD)), the maximal tolerated dose (MTD) at 5 days was no less than 20 mg/kg. In addition, the survival of mice entry is reported as “all mice died in a day” in “In vivo toxicity” (i.p. 40 mg/kg) and “all mice survived” in the series “In vivo toxicity” (i.p. 10 or 20 mg/kg, 5 days observation). Besides, the “Susceptible?” value in series [1], in series [2], in series [3], in series [4], in series [5] and in series [6] was “Yes” each time. The “Susceptible?” value in [7] and in [8] (mutant SAUSA300_1228 thrB versus WT) was “Yes” throughout. In addition, the “MIC” value in series [8] (mutant SAUSA300_1228 thrB, 50% TSB) is 1.6 to 3.1 µM.

Values taken from patent US20240294572A1, “Antimicrobial Peptides” (priority 2021, published 2024).
